No end group written: not given here.
Experiments:
Format in all cases: cell-based, human
[1] = system: PBMCs of healthy adults reactive to the anti-HLA-A*24 antibody; test: Induction of specific CTLs from PBMCs, method for quantifying cells producing intracellular IFNγ; set-up: key to specific CTL induction, cytokine quantification method: ∘: “open circle” indicates that the use of a candidate peptide enabled specific CTLs to be induced; x: “cross” indicates that specific CTLs was unable to be induced; conditions: for peptide-specific cytokine production in PBMCs derived from ten people with HLA-A*24 molecule: summary of Table 2; for CD8-positive, IFNγ-positive (producing) cells in UR: restimulation with the same peptide as used in the induction, % in PBMCs; for number of persons with peptide-specific IFNγ production / CTL induction: ten persons tested
Method: This induction method induces CTLs by adding peptides to culture media of PBMCs. Peptides are presented on antigen-presenting cells present among PBMCs, such as dendritic cells, B cells, macrophages, and certain types of T cells, whereby CTL precursor cells in PBMCs are stimulated to proliferate.
Peripheral blood collected from healthy adults that were reactive to the anti-HLA-A*24 antibody was centrifuged at 3,000 rpm for 5 to 10 minutes. The resulting supernatant plasma was collected. The non-plasma portion was processed according to a conventional method to isolate PBMCs. The characteristic of the present method is the addition of several % of plasma to an induction medium. In the present invention, a favorable result was obtained by adding 5% plasma. The medium is prepared by adding appropriate additives and antibiotics to a medium commonly used for cell culture. The CTL induction medium used in the present invention was RPMI1640 Hepes modify (Sigam) supplemented with 2-mercapotethanol, L-glutamine, and the antibiotics streptomycin and penicillin. In addition to these, insulin, transferrin, selenious acid, pyruvic acid, human serum albumin, solution of non-essential amino acids, and the like may be added. 1 to 3×10^6 PBMCs were suspended in 1 to 2.5 ml of the culture medium. A candidate peptide was added to the cells at a concentration of 1 to 20 μg/ml. The concentration of peptide can be altered depending on the solubility of the peptide. The peptide was added at 10 μg/ml. After two days, IL-2 was added at a final concentration of 20 to 100 U/ml. Round-bottomed culture dishes that allow the exchange of carbon dioxide gas are preferably used to co-culture PBMCs with peptides. In the context of the present invention, 14-ml round-bottomed polypropylene tubes (Becton Dikinson) or 96-well U-bottomed cell culture microtest plates (Becton Dikinson) were used. The adenovirus-specific CTLs were confirmed after about two and four weeks of culture. The cells were stimulated again with the peptide at 10 μg/ml after about two weeks of culture. When the induction of adenovirus-specific CTLs was confirmed, the cells were further stimulated with peptide-pulsed antigen-presenting cells to establish CTL lines.
Approximately 1/10 to all of the cells induced by the above-described method were transferred into 96-well U-bottomed cell culture microtest plates, and the peptide used for the induction was added thereto at a final concentration of 0.01 to 0.05 μg/ml. Then, an intracellular protein transport inhibitor (for example, brefeldin A, monensin, or such) was added, and the cells were cultured in a 5% CO2 incubator at 37° C. for 5 to 16 hours. After culture, the cells were washed, and phycoerythrin (PE)-labeled MHC-tetramer reagent and phycoerythrin-Cy5(PC5)-labeled CD8 antibody (Beckman Coulter) were added thereto. The resulting mixture was allowed to stand at room temperature for 15 to 30 minutes. After washing, the cells were fixed with 4% formaldehyde at 4° C. for 15 minutes and washed with an excess amount of washing solution. After membrane permeabilization treatment with 0.1% saponin, an FITC-labeled anti-IFNγ antibody (Beckman Coulter) was added, and reacted at room temperature for 15 to 30 minutes. After washing, the proportion of IFNγ-positive cells in T cells or MHC-tetramer reagent-positive cells was determined using a flow cytometer.
PBMCs derived from ten people with HLA-A*24 molecule were tested using 10 types of peptides. […] Thus, these six types of candidate epitope peptides serve as adenovirus-specific CTL epitope peptides. Since the adenovirus-specific CTL epitope peptides have the HLA-A*24-binding motif, they are likely to be HLA-A*2402-restricted epitope peptides, which are carried by 60% or more of the Japanese people. In the context of the results described above, MHC-tetramer reagents were synthesized using five types of epitope peptides, and their utility was tested.

[2] = system: CTLs with target cells expressing HLA-A*24 molecules; test: Confirmation of CTLs by ELISPOT assay (IFNγ spots); conditions: FIG. 4
Method: A commercially available ELISPOT assay kit (for example, MABTECH Co.) may be purchased, and the assay can be performed according to the manufacturer's protocol. Alternatively, the assay may also be carried out by the following procedure. 96-well MultiScreen-HA plates (Millipore Co.) were coated with an anti-IFNγ monoclonal antibody (R&D Systems Co.) at 4° C. for overnight. Each well was washed with PBS. Target cells were plated into each well. Any cells expressing HLA-A*24 molecules on their surface can be used as the target cells. For example, T2-A24, a cultured cell which a gene of HLA-A*24 molecule is introduced into a 174CEM.T2 cell, can be used. Alternatively, EBV-infected LCLs expressing HLA-A*24 molecules on their surface can be used as the target cells. These target cells were added into each well with a candidate peptide for adenovirus-specific CTL epitopes or a negative control (HIV) peptide. The mixtures were allowed to stand at room temperature for 30 minutes. Then, an adequate number of CTLs were added, and the mixtures were cultured in a 5% CO2 incubator at 37° C. for 20 hours. CTLs that responded to the candidate epitope peptide secreted IFNγ during this culture period, and the IFNγ bound to the anti-IFNγ monoclonal antibody that was coated on the plates. After culturing was completed, the plates were washed with PBS containing 0.05% Tween-20. Then, an anti-IFNγ polyclonal antibody (Genzyme Co.) and peroxidase-labeled goat anti-rabbit IgG serum were allowed to react in this order at room temperature for 90 minutes each. Furthermore, 3-amino-9-ethylcarbasole (Sigma), a peroxidase substrate, and 0.1M sodium acetate buffer (pH 5.0) containing 0.015% H2O2 was added to each well, and the plates were incubated at room temperature for 40 minutes to visualize the IFNγ spots. The spots were counted under a stereomicroscope.
The spots were counted under a stereomicroscope, and were plotted on a graph.

[3] = system: CTL line induced by TYF (PBMCs from ID*24-8); test: Cross-reactivity of the TYF-induced CTL line to the subgroup C-specific CTL epitope; conditions: PBMCs from ID*24-8 stimulated with TYF for 13 days
Source text: As shown in FIG. 11-4, there are amino acid mutations at the fourth and sixth positions in TYF identified in the present invention as compared to the subgroup C-specific CTL epitopes. Thus, the cross-reactivity to subgroup C-specific CTL epitope ([…] (SEQ ID NO: 14); mutated amino acids are underlined) (Leen A M, Sili U, Vanin E F, Jewell A M, Xie W, Vignali D, Piedra P A, Brenner M K, Rooney C M. Conserved CTL epitopes on the adenovirus hexon protein expand subgroup cross-reactive and subgroup-specific CD8+ T cells. Blood. 104:2432-2440 (2004)) was examined using a CTL line induced by TYF.
PBMCs prepared from ID*24-8 were stimulated with TYF for 13 days, and then restimulated with TYF or […] (SEQ ID NO: 14) to examine whether the CTL line produces IFNγ.

[4] = system: peripheral blood / PBMCs / peptide-induced CTL lines of HLA-A*24 donors; test: Staining of peripheral blood, PBMCs or peptide-induced CTL lines with MHC-tetramer reagents
Method: MBL Co. where the present inventors are affiliated with has acquired exclusive patent licensing rights in Japan for MHC-tetramer reagents (U.S. Pat. No. 5,635,363; French Application No. FR9911133; and U.S. Pat. Nos. 5,723,584, 5,874,239, 5,932,433, and 6,265,552) from Beckman Coulter Co. Based on the patents, PE-labeled MHC-tetramer reagents were prepared using adenovirus-specific CTL epitope peptides and HLA-A*2402 molecules.
Adenovirus-specific CTLs quantification was carried out using MHC-tetramer reagents that was prepared using CTL epitope peptides of the present invention, with peripheral blood, PBMCs isolated from peripheral blood, CTL lines induced using CTL epitope peptides as samples. Examples of quantification using PE-labeled MHC-tetramer reagents are described below. Labelling dyes may be used in an appropriate combination depending on the type of flow cytometer to be used, and is not limited to the examples described below.
Ten μl of a PE-labeled MHC-tetramer reagent, 20 μl of an FITC-labeled antibody for T cell (for example, CD8, CD4, or CD3), and such were added to 200 μl of collected peripheral blood. A CD45 antibody labeled with PC5 or such may also be added to eliminate nonspecific fluorescence due to contaminated erythrocytes. After gentle mixing, the mixture was allowed to stand at room temperature for 30 minutes. OptiLyse B was added, and erythrolysis and fixation was carried out according to the manufacturer's protocol. Two ml of PBS was added, stirred, and the cells were centrifuged at 400×g for 5 minutes. After the supernatant was removed by aspiration, the cells were resuspended in 500 μl of PBS and analyzed using a flow cytometer within 24 hours.
Ten μl of a PE-labeled MHC-tetramer reagent, 20 μl of an FITC-labeled T cell surface antibody (for example, CD8, CD4, or CD3), and such were added to an appropriate amount of PBMCs (10^5 to 10^6 cells) or a CTL line induced by use of CTL epitope peptides. A CD45 antibody labeled with PC5 or such may also be added to eliminate nonspecific fluorescence due to contaminated erythrocytes. After gentle mixing, the cells were allowed to stand at room temperature for 30 minutes. Three ml of PBS was added, stirred, and the cells were centrifuged at 400×g for 5 minutes. After the supernatant was removed by aspiration, the cells were resuspended in 500 μl of PBS. When a CTL line is used, 7-AAD Viability Dye (Non-viable cell detection reagent; MBL Co.) may be added to eliminate nonspecific fluorescence caused by non-viable cells. The cells were analyzed using a flow cytometer within 24 hours.
The results of staining obtained using the five types of MHC-tetramer reagents used to prepare the peptide-induced CTL lines are shown in FIG. 5.

Sequence	specific CTL induction, cytokine quantification method ([1]; donor ID *24-1)	specific CTL induction, cytokine quantification method ([1]; donor ID *24-2)	specific CTL induction, cytokine quantification method ([1]; donor ID *24-3)	specific CTL induction, cytokine quantification method ([1]; donor ID *24-5)	specific CTL induction, cytokine quantification method ([1]; donor ID *24-8)	specific CTL induction, cytokine quantification method ([1]; donor ID *24-10)	specific CTL induction, cytokine quantification method ([1]; donor ID *24-11)	specific CTL induction, cytokine quantification method ([1]; donor ID *24-12)	specific CTL induction, cytokine quantification method ([1]; donor ID *24-13)	specific CTL induction, cytokine quantification method ([1]; donor ID *24-14)	peptide-specific cytokine production in PBMCs derived from ten people with HLA-A*24 molecule [1]	IFNγ spots in ELISPOT assay compared with the negative control (HIV) peptide [2]	CD8-positive, IFNγ-positive (producing) cells in UR ([1]; donor *24-12) [%]	number of persons with peptide-specific IFNγ production / CTL induction [1]	also measured
LYANSAHAL	x	x	∘	x	∘	x	x	x	x	x	induce cytokine production in a peptide-specific manner	IFNγ spots were observed	–	–	specific CTL induction confirmed by CD8-positive, IFNγ-positive cells versus HIV peptide ([1]; donor ID*24-8, FIG. 3a-d): induced specific CTLs
LYSNVALYL	x	x	x	x	x	x	x	∘	∘	x	induce cytokine production in a peptide-specific manner	IFNγ spots were observed	2.95	two of the ten persons	specific CTL induction confirmed by CD8-positive, IFNγ-positive cells versus HIV peptide ([1]; donor ID*24-12, FIG. 3e-h): specific CTL induction was confirmed
TYFSLNNKF (An artificially synthesized epitope peptide sequence) [reference compound]	–	–	–	–	–	–	–	–	–	–	–	–	–	–	IFNγ production of the CTL line induced by TYF on restimulation with the named peptide [3]: did not produce IFNγ; CD8-positive and TYF-Tet-positive cells ([3]; restimulated with the named peptide): 1.97%
TYPVLEEMF [EBV BRLF1, reference compound]	∘	∘	∘	x	∘	∘	∘	∘	∘	∘	–	–	9.57	nine of ten persons	specific CTLs (CD8-positive MHC-tetramer reagent-positive cells, UR) ([4]; donor ID*24-2, 13 days stimulation with the peptide, then HIV peptide added, % of whole viable cells): 13.0%; positive rate: CD8-positive, MHC-tetramer reagent-positive cells to viable cells ([4]; donor ID*24-8, PBMCs cultured with the epitope peptide for 10 days (day 10)): 15.6%; positive rate: CD8-positive, MHC-tetramer reagent-positive cells to viable cells ([4]; donor ID*24-8, immediately after blood collection (day 0)): 0.03%; increase of the positive rate from day 0 to day 10 ([4]; donor ID*24-8, ten days of culture with the peptide): about 520 times; CD8-positive, IFNγ-positive (producing) cells in UR ([1]; donor *24-8): 24.9%
